According to patent US7811352B2, “Fertilizer compositions and methods of using” (priority 2005, dated 2010):

Tests used:
[1] = test system: creeping bentgrass for greens; assay: Phytotoxicity (% burn), creeping bentgrass for greens (Example 12); assay type: in vivo
Text: In this Example, the effect of a fertilizer comprising lysine on turfgrass growth was examined. The effects of lysine (HCl) and LIQUID LYSINE on a common type of golf course greens quality turfgrass (creeping bentgrass for greens) were compared with those of CoRoN® brand fertilizer (commercially available from Helena Chemical Co., Collierville, Tenn.).
Nine fertilizer treatments comprising three concentrations of each fertilizer composition (Corono® (N—P—K, 14-2-14), LIQUID LYSINE (N—P—K, 10-2-1), and lysine (HCl) (N—P—K, 15-2-1)) were prepared and applied to 3 replications of creeping bentgrass for use on golf course greens. The lysine (HCl) (250 g) was dissolved in water (500 mL) prior to application. Each fertilizer treatment was applied in concentrations of 0.7 g N/m^2, 1.4 g N/m^2, and 2.8 g N/m^2. All applications were made using an Ortho Heavy Duty hand pump sprayer with all products being mixed with 126 mL of water for application. Plot size was 2 ft×6 ft set up as a randomized complete block. Irrigation was applied following application. Plots were rated for turfgrass quality and color (scale of 1-10 where 10=dark green turf, 1=dead/brown turf, and 6minimally acceptable turf) and phytotoxicity (% bum) throughout the study period. Quality, color, and phytotoxicity were measured on day 7, day 14, day 2I1, day 28, day 35, and day 42 after application. All data was subject to statistical analysis and significant means were determined.

[2] = Solubility of L-lysine (HCl) in water; assay type: physicochemical; conditions: at 25° C., read-out: solubility in H2O

SMILES: Cl.NCCCC[C@H](N)C(=O)O [Lys (HCl) 15% N, L-lysine monohydrochloride]
- Phytotoxicity (% Burn) - Creeping Bentgrass ([1]; Rate 0.7 gN/m^2, Day 7): 2.3b %
- Phytotoxicity (% Burn) - Creeping Bentgrass ([1]; Rate 0.7 gN/m^2, Day 14): 15.0c %
- Phytotoxicity (% Burn) - Creeping Bentgrass ([1]; Rate 0.7 gN/m^2, Day 21): 10.0d %
- Phytotoxicity (% Burn) - Creeping Bentgrass ([1]; Rate 0.7 gN/m^2, Day 28): 6.7b %
- Phytotoxicity (% Burn) - Creeping Bentgrass ([1]; Rate 0.7 gN/m^2, Day 35): 3.3d %
- Phytotoxicity (% Burn) - Creeping Bentgrass ([1]; Rate 0.7 gN/m^2, Day 42): 1.7c %
- Phytotoxicity (% Burn) - Creeping Bentgrass ([1]; Rate 1.4 gN/m^2, Day 7): 15.0c %
- Phytotoxicity (% Burn) - Creeping Bentgrass ([1]; Rate 1.4 gN/m^2, Day 14): 58.3b %
- Phytotoxicity (% Burn) - Creeping Bentgrass ([1]; Rate 1.4 gN/m^2, Day 21): 51.7b %
- Phytotoxicity (% Burn) - Creeping Bentgrass ([1]; Rate 1.4 gN/m^2, Day 28): 18.3ab %
- Phytotoxicity (% Burn) - Creeping Bentgrass ([1]; Rate 1.4 gN/m^2, Day 35): 56.7b %
- Phytotoxicity (% Burn) - Creeping Bentgrass ([1]; Rate 1.4 gN/m^2, Day 42): 31.7b %
- Phytotoxicity (% Burn) - Creeping Bentgrass ([1]; Rate 2.8 gN/m^2, Day 7): 36.7a %
- Phytotoxicity (% Burn) - Creeping Bentgrass ([1]; Rate 2.8 gN/m^2, Day 14): 78.3a %
- Phytotoxicity (% Burn) - Creeping Bentgrass ([1]; Rate 2.8 gN/m^2, Day 21): 73.3a %
- Phytotoxicity (% Burn) - Creeping Bentgrass ([1]; Rate 2.8 gN/m^2, Day 28): 35.0a %
- Phytotoxicity (% Burn) - Creeping Bentgrass ([1]; Rate 2.8 gN/m^2, Day 35): 83.3a %
- Phytotoxicity (% Burn) - Creeping Bentgrass ([1]; Rate 2.8 gN/m^2, Day 42): 78.3a %
- solubility [2]: 500 to 600 mg/mL
